Measured values: patent publication US8168644B2, “Quinazolinone derivatives as tubulin polymerization inhibitors” (Janssen Pharmaceutica NV, priority 2008, dated 2012)

Legend:
[1] = test system: Human prostate cancer PC-3 cells; experiment: Anti-proliferative effect, Alamar Blue assay, PC-3; format: cell-based; parameters: key to PC3 antiproliferative activity pIC50: pIC50 = negative log of IC50 (conc. reducing growth to 50% of control); settings: 4-day incubation; for IC50: Homo sapiens, 96 h, read-out: PC3 antiproliferative activity pIC50 (converted)
Experimental: Human prostate cancer PC-3 cells obtained from the ATCC were cultured in HAM'S F12 medium supplemented with 1 mM Sodium Pyruvate, 1.5 g/L Sodium Bicarbonate, 50 μg/ml gentamicin, non-essential amino acids and 10% fetal calf serum.
(§1) Resazurin was purchased from Aldrich (Prod. No. 199303). Potassium ferrocyanide, potassium ferricyanide, KH2PO4 and K2HPO4 were purchased from Sigma (Prod. Nos. P9387, P8131, P5655 and P8281, respectively).
(§2) Potassium Phosphate Buffer 0.1 M (PPB) was made as follows: 2.72 gram KH2PO4 and 13.86 gram K2HPO4 were dissolved in 500 ml milli-Q H2O, the pH was adjusted to pH 7.4 and the volume was brought to 1 liter with milli-Q H2O; the buffer was filter sterilised and stored at room temperature. Resazurin stock solution (PPB-A) was prepared fresh by dissolving 45 mg resazurin in 15 ml PBS. 30 mM potassium ferricyanide (PPB-B) was prepared by dissolving 0.987 gram potassium ferricyanide in 100 ml PPB. 30 mM potassium ferrocyanide (PPB-C) was prepared by dissolving 1.266 gram potassium ferrocyanide in 100 ml PPB.
(§3) Mixture of PPB-A, PPB-B and PPB-C was prepared by mixing equal volumes of the respective solutions. Resazurin work solution (herein termed “Alamar Blue” solution) was prepared by diluting said mixture 20× (vol/vol) in PPB and filter sterilising; the Alamar Blue solution could be kept at 4° C. for a maximum of 2 weeks.
(§4) For experiments in 384 wells plates the cells were seeded at a density of 4.5×10^3 cells/ml in Falcon 384-well culture plates (Life Technologies, Merelbeke, Belgium), black with clear bottom, in 45 μl culture medium. Cells were allowed to adhere to plastic for 24 hours. The tested compound was pre-diluted (1/50 in culture medium) and 5 μl pre-diluted compound was added to the wells. Following 4-day incubation, 10 μl of the Alamar Blue solution was added to each well and the cells were further incubated for 4 hours (HCT116) or 24 hours (PC-3) at 37° C. The fluorescence intensity was measured for each well on a Fluorescence plate reader (Fluoroskan, Labsystems, 540 nm excitation and 590 nm emission)
(§5) The antiproliferative activity was calculated as percentage of remaining viable cells in treated versus control (untreated cells) conditions. Within an experiment, the result for each experimental condition is the mean of 3 replicate wells. When appropriate, the experiments were repeated to establish full concentration-response curves. When appropriate, IC50-values (concentration of the drug, needed to reduce cell growth to 50% of the control) were computed using probit analysis for graded data (Finney, D. J., Probit Analyses, 2nd Ed. Chapter 10, Graded Responses, Cambridge University Press, Cambridge 1962). Herein the effects of test compounds are expressed as pIC50 (the negative log value of the IC50-value) (see Table 3).

α-β-Tubulin = α-β-Tubulin polymerization assay; format: biochemical; parameters: key: a compound showing 0 to 50% inhibition at 20 μM is reported as score 1; Score 2 compounds are defined as compound showing more than 50% inhibition at 20 μM and less than 50% inhibition at 5 μM; a compound showing more than 50% inhibition at 5 μM is reported as score 3; settings: inhibition of polymerization at 20 μM and 5 μM, reported as score
Experimental: The tubulin polymerization assay is an adaptation of an assay originally described by Bonne, D. et al. (J. Biol. Chem., 1985, 260:2819-25). The assay kit was purchased from Cytoskeleton, Inc. (catalogue number BK011) and the assay was performed as described by the supplier with the following modifications. The assay was run in a 384-well black Proxiplate (Perkin Elmer) and volumes were adapted accordingly. The reactions were carried out in a final volume of 10 μl. Compounds were added to 25 μl of the reaction mix in 96-well PP plates (Corning) on ice and 10 μl of this mixture was dispensed into duplicates of the 384-well Proxiplates pre-warmed to 37° C. in a Fluoroskan Ascent plate reader (Thermo Scientific). Fluorescence measurements were taken every minute for one hour. The maximum slope of each well was determined (linear regression through 4 consecutive points) and polymerization was calculated as a percentage of polymerization observed in the absence of compound. Compounds were first measured at a concentration of 20 μM and then at 5 μM for those showing more than 50% inhibition at 20 μM as compared to the polymerization observed in the absence of compound. Results are reported in Table F-2 as scores defined as: a compound showing 0 to 50% inhibition at 20 μM is reported as score 1; a compound showing more than 50% inhibition at 5 μM is reported as score 3.

[2] = test system: Human colon carcinoma HCT116 cells; experiment: Anti-proliferative effect, Alamar Blue assay, HCT116; format: cell-based; settings: 4-day incubation; for IC50: Homo sapiens, HCT-116, 96 h, read-out: HCT116 antiproliferative activity pIC50 (converted)
Experimental: Human colon carcinoma HCT116 cells obtained from the ATCC were cultured in McCoy's 5A medium supplemented with 2 mM L-Glutamine, 50 μg/ml gentamicin and 10% heat inactivated fetal calf serum.
as §1, §2, §3, §4, §5

[3] = test system: human prostate cancer PC3 cells; experiment: Eb1 cellular assay (Eb1 Comet assay); format: cell-based; settings: 1 hour treatment, LAC = concentration where Eb1 foci absent in at least 50% of treated cells
Experimental: The Eb1 Comet assay relies on the detection of the Eb1 protein at the plus end of polymerizing microtubules (Mimori-Kiyosue, 2000) using indirect immunofluorescence. Disruption of microtubule dynamics through de-polymerization or stabilization results in a de-localization of Eb1 from the growing microtubule ends and this is visualized by the disappearance of Eb1 containing cytoplasmic foci.
Briefly, human prostate cancer PC3 cells obtained from the American Type Culture Collection were grown in 96-well plates (Greiner, cat. no. 655090) in HAM's F12 medium as recommended by the provider (ATCC). The cells were treated for 1 hour at 37° C. with compounds dissolved in DMSO (0.6% final DMSO concentration). The culture medium was then removed by aspiration and the cells were fixed by adding cold methanol (−20° C.). After a 15 minutes incubation at −20° C., the cells were washed twice with DPBS (Gibco) containing 0.5% Triton X-100. Mouse Eb1 antibody (BD Transduction Laboratories, cat. no. 610534) was added to the cells (1/250 dilution in DPBS containing 1% BSA) and incubated overnight at room temperature. The antibody was subsequently removed and the cells washed twice with DPBS, 0.5% Triton X-100. Secondary goat anti-mouse antibody conjugated to Alexa 488 fluorescent dye (Molecular Probes) was added at a 1/500 dilution in DPBS, 1% BSA and incubated for 1 hour at 37° C. The cells were washed twice with DPBS, 0.5% Triton X-100 and then DPBS containing 0.5% Triton X-100 and 1/5000 Hoechst 33342 (Molecular Probes) was added. Microscopy based Eb1 foci visualization was carried out using an IN Cell Analyser 1000 (Amersham Biosciences) using a 20× objective. Compound dependent microtubule disruption was visually determined by the disappearance in Eb1 foci. The lowest active concentration (LAC) was determined as the concentration where Eb1 foci were absent in at least 50% of the treated cells. Herein the effects of test compounds are expressed as pLAC (the negative log value of the LAC-value) (see Table 3).

IC50 [1] [nM] | IC50 [2] [nM] | melting point [°C] | PC3 antiproliferative activity pIC50 [1] | HCT116 antiproliferative activity pIC50 [2] | Structure (SMILES) | tubulin polymerization score (α-β-Tubulin) | Eb1 pLAC [3]
501 | 794 | 210 | – | – | CN1Cc2ccc(C(C)(C#N)Cc3ccccc3)cc2NC1=O (stereo not drawn) [Compound 7] | 3 (a compound showing more than 50% inhibition at 5 μM is reported as score 3) | 6.5
501 | 200 | 83 | – | – | CCN1Cc2ccc(C(C)(C#N)Cc3cccc(I)c3)cc2NC1=O (stereo not drawn) [Compound 8] | 3 (a compound showing more than 50% inhibition at 5 μM is reported as score 3) | 6.5
> 10000 | > 10000 | 124 | – | – | CCN1Cc2ccc([C@@](C)(C#N)Cc3ccccc3)cc2NC1=O [Compound 3] | 1 (a compound showing 0 to 50% inhibition at 20 μM is reported as score 1) | –
501 | 200 | 124 | – | – | CCN1Cc2ccc([C@](C)(C#N)Cc3ccccc3)cc2NC1=O [Compound 4] | 3 (a compound showing more than 50% inhibition at 5 μM is reported as score 3) | –
– | – | – | 6.2 | 6.4 | CCN1Cc2ccc(C(C)(C#N)Cc3cc(OC)cc(OC)c3)cc2NC1=O (stereo not drawn) [Compound 19] | 3 (a compound showing more than 50% inhibition at 5 μM is reported as score 3) | 6.5
316 | 158 | 84.4 to 102.4 | – | – | C#Cc1cccc(CC(C)(C#N)c2ccc3c(c2)NC(=O)N(CC)C3)c1 (stereo not drawn) [Compound 10] | 3 (a compound showing more than 50% inhibition at 5 μM is reported as score 3) | 7
100 | 79.4 | 226 | – | – | CCN1Cc2ccc([C@](C)(C#N)[C@@H]3CCc4c(Cl)ccnc43)cc2NC1=O [Compound 13] | – | –
– | – | – | 5.9 | 6.2 | CCN1Cc2ccc(C(C)(C#N)Cc3ccccc3)cc2NC1=O (stereo not drawn) [Compound 16] | 2 | 6
– | – | – | 6.6 | 6.7 | CCN1Cc2ccc(C(C)(C#N)Cc3cccc(C#CCOC)c3)cc2NC1=O (stereo not drawn) [Compound 36] | 3 (a compound showing more than 50% inhibition at 5 μM is reported as score 3) | 7
79.4 | 39.8 | 95 | – | – | CCN1Cc2ccc([C@](C)(C#N)Cc3nc(OC)cc(OC)n3)cc2NC1=O (single isomer, unassigned) [Compound 1] | – | >7.5
> 10000 | > 10000 | 152 | – | – | CCN1Cc2ccc([C@@](C)(C#N)Cc3cccc(C#N)c3)cc2NC1=O [Compound 5] | 1 (a compound showing 0 to 50% inhibition at 20 μM is reported as score 1) | –
100 | 50.1 | 152 | – | – | CCN1Cc2ccc([C@](C)(C#N)Cc3cccc(C#N)c3)cc2NC1=O [Compound 6] | 3 (a compound showing more than 50% inhibition at 5 μM is reported as score 3) | 7
